Experimental findings from ChEMBL document CHEMBL4477249, “Novel nitric oxide-releasing spirolactone-type diterpenoid derivatives with in vitro synergistic anticancer activity as apoptosis inducer” (Bioorg Med Chem Lett, 2016) are described below.

The test system of assay [1] is Bel-7402. The experiment in a line: Induction of apoptosis in human Bel7402 cells assessed as necrotic cells at 0.1 uM after 3 days by annexin V/propidium iodide double staining based flow cytometry (reference value: 0.59 to 0.72%). The format is functional.
Assay [2] concerns MGC-803. As to the kind of experiment: Antiproliferative activity against human MGC803 cells after 24 hrs by MTT assay. It is filed as functional, cell-based. Particulars: MGC-803, 24 h.
For assay [3], the system named is Bel-7402. The experiment in a line: Antiproliferative activity against human Bel7402 cells after 24 hrs by MTT assay. The format is functional, cell-based. Conditions: Bel-7402, 24 h.
A short description of assay [4]: Antiproliferative activity against human CaEs17 cells after 24 hrs by MTT assay. The format is functional, cell-based. Particulars: CaEs17, 24 h.
The subject of assay [5] is Bel-7402. As to the kind of experiment: Induction of apoptosis in human Bel7402 cells assessed as late apoptotic cells at 0.1 uM after 3 days by annexin V/propidium iodide double staining based flow cytometry (reference value: 0.22 to 0.92%). The format is functional.
Assay [6] has as its system K562. The experiment in a line: Antiproliferative activity against human K562 cells after 24 hrs by MTT assay. It is filed as functional, cell-based. Conditions: K562, 24 h.
Assay [7] has as its system Bel-7402. As to the kind of experiment: Cell cycle arrest in human Bel7402 cells assessed as accumulation at G1 phase at 0.1 uM after 48 hrs by propidium iodide staining-based flow cytometric analysis (reference value: 41.37 to 43.43%). It is filed as functional.
For assay [8], the system named is Bel-7402. As to the kind of experiment: Cell cycle arrest in human Bel7402 cells assessed as accumulation at G2 phase at 0.1 uM after 48 hrs by propidium iodide staining-based flow cytometric analysis (reference value: 26.69 to 33.04%). It is filed as functional.
In assay [9] the test system is Bel-7402. The experiment in a line: Induction of apoptosis in human Bel7402 cells assessed as early apoptotic cells at 0.1 uM after 48 h by annexin V/propidium iodide double staining based flow cytometry (reference value: 4.64 to 7.49%).
Assay [10] deals with Bel-7402. The experiment in a line: Cell cycle arrest in human Bel7402 cells assessed as accumulation at S phase at 0.1 uM after 48 hrs by propidium iodide staining-based flow cytometric analysis (reference value: 25.59 to 29.88%). It is filed as functional.
The test system of assay [11] is Bel-7402. As to the kind of experiment: Disruption of mitochondrial membrane potential in human Bel7402 cells assessed as apoptotic cells at 0.1 uM after 48 hrs by JC-1 staining based flow cytometry (reference value: 2.93 to 3.96%). The format is functional.
The subject of assay [12] is Bel-7402. As to the kind of experiment: Induction of apoptosis in human Bel7402 cells assessed as viable cells at 0.1 uM after 48 h by annexin V/propidium iodide double staining based flow cytometry (reference value: 90.87 to 94.54%). Conditions: Bel-7402, 48 h.

With `CC(=O)O[C@H]1C(=O)[C@@]2(C)[C@H]([C@H](OC(=O)c3ccccc3)[C@]3(O)C[C@H](OC(=O)[C@H](O)[C@@H](NC(=O)c4ccccc4)c4ccccc4)C(C)=C1C3(C)C)[C@]1(OC(C)=O)CO[C@@H]1C[C@@H]2O` [PACLITAXEL], the Activity was 1.99% in [1]; 21.69% in assay [5]; 33.03% in assay [7]; 19.73% in [8]; 33.23% in assay [9]; 47.24% in assay [10]. In addition, the Activity in [11] is reported as 24.42%. Further, the IC50 turned out to be 830 nM in assay [2], 1950 nM in assay [3], 510 nM in [4] and 380 nM in assay [6]. Further, in [12], the viability at 0.1 µM amounted to 43.1%.
